Laboratory results published in US7060694B2, “High potency dihydroergotamine compositions” (Pozen Inc., priority 1999, dated 2006).

Assays:
[1] = assay type: in vivo, human; conditions: after either treatment (MT 300 sc or DHE 45 im), LLOQ 50 pg/ml
Experimental: The study described above in Example 2 utilizes an incomplete crossover design. This protocol is amended to provide a direct comparison of the tolerance and pharmacokinetics of a 2 mg/ml (2.9 mM) formulation of MT 300 (Formulation A-2) and DHE 45®. The present experiment is a randomized, open-label, two period, […], crossover study comparing subcutaneous administration of 1.2 mg of MT 300 and intramuscular administration of 1 mg of DHE 45®. Plasma dihydroergotamine and the 8-hydroxydihydroergotamine metabolite are measured with an LC/MS/MS method, with a LLOQ of 50 pg/ml for both DHE and 8-OH DHE. Serial blood samples are collected for 72 hours after the dose. Seven of 8 subjects complete this study. One subject withdraws from the study due to difficulty in obtaining the blood samples. The adverse event profile is similar to that observed in the study of Example 2.

[2] = Animal studies of DHE absorption with caffeine; assay type: in vivo; conditions: caffeine at 10:1 weight ratio relative to DHE
[3] = Solubility of DHE in aqueous formulations with caffeine
[4] = DHE given subcutaneously at 1.5 mM; cited from earlier work
[5] = Example 4: overall tolerance profile (adverse events) of subjects administered DHE; assay type: in vivo, human; conditions: DHE concentration increased from 1.5 mM to 2.9 mM or more, total quantity of DHE constant
From the text: Adverse events occur in 20 of 33 subjects treated with MT 300 and 8 of 13 subjects treated with DHE 45®.

Compound | plasma levels of 8-OH DHE metabolite [1] | drug absorption characteristics [2] | solubility of DHE in aqueous formulations [3] | nausea in treated patients [4] [%] | side effects, particularly nausea [5]
8-hydroxydihydroergotamine [8-OH DHE] | No significant levels | – | – | – | –
CN1C[C@H](C(=O)N[C@]2(C)O[C@@]3(O)[C@@H]4CCCN4C(=O)[C@H](Cc4ccccc4)N3C2=O)C[C@@H]2c3cccc4[nH]cc(c34)C[C@H]21 [DHE, Dihydroergotamine] | – | improves drug absorption characteristics | greatly increases the solubility | ~16 | reduced
